# Data taken from article PMC6607443, “Systematic identification of recognition motifs for the hub protein LC8” (Life Science Alliance, 2019).
# Where no end group is shown, it is not given here.
# Molecular target: LC8 (UniProt P63167)
# Test: not given
# Conditions: rotavirus A VP4 residues 644–651; ref Martínez-Moreno et al, 2003; cited from earlier work
# Text: We scanned Homo sapiens and viral proteomes for potential LC8-binding sequences based upon: (1) their propensity for disorder, (2) their sequence conservation across related species, and (3) the sequence’s similarity to known motifs. This final parameter used a PSSM based on the relative enrichment or depletion of each residue in a potential sequence, weighted by amino acid frequency. Enrichment and depletion PSSMs were populated using sequences that interact with LC8, verified either by mutagenesis or in vitro assays. ITC experiments were performed on 19 synthetic peptides with high-scoring s ...
# Sequence of LC8 (P63167 whole entry): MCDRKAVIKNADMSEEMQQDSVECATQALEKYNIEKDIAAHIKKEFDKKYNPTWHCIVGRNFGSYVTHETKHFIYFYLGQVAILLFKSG
row,Sequence,binding to LC8 (in words)
1,"IDMSTQIG [rotavirus A VP4 residue position 644–651, site predicted and tested in a previous study]",did not bind LC8

# Molecular target: LC8 (UniProt P63167)
# Test: ITC of synthetic peptides binding to LC8
# Conditions: Fig 3B; ITC, 25°C, 50 mM NaCl, 50 mM NaPO4, 1 mM NaN3, pH 7.5; single-site model; average of two to three independent experiments; read-out: Kd
row,Sequence,Kd [µM]
1,"ISRMTQTP [RAVL, synthesized to validate previous data]",8
2,"VAQGTQTP [BSN^III, synthesized to validate previous data]",5.3
3,"RNSQTQTD [VP35(EBV), synthesized to validate previous data]",0.8

# Same assay, conditions: ITC, 25°C, pH 7.5; single-site model; read-out: Kd
row,Sequence,Kd [µM]
1,"KDGDTQTD [HTATSF1, peptide from HIV Tat-specific factor 1, UniProt O43719, predicted by LC8Pred]",10

# Same assay, conditions: ITC, 25°C, pH 7.5; strong = Kd fit, weak = heat but not fit (>25 μM)
row,Sequence,binding to LC8 via ITC (in words)
1,"KTLTFSGSSQTVTP [QSER1, synthetic peptide from QSER1, UniProt Q2KHR3]",nonbinders
2,"SSTEVQVE [OTOF, peptide from otoferlin, UniProt Q9HC10, predicted by LC8Pred]",bound to LC8
3,STQTPSPAPASDMP [BSN-shift],failed to demonstrate even weak binding to LC8
4,"KDGDTQTD [HTATSF1, peptide from HIV Tat-specific factor 1, UniProt O43719, predicted by LC8Pred]",“strong” binder
5,"SKTQQTFGSQTECT [TOGARAM1, synthetic peptide from TOGARAM1, UniProt Q9Y4F4]",weak binders
6,"RTSETNTP [NIN, peptide from ninein, UniProt Q8N4C6, predicted by LC8Pred]",bound to LC8

# Same assay, conditions: Table 1, peptides synthesized from phage display hits; ITC, 25°C, 50 mM sodium phosphate, 50 mM NaCl, 1 mM sodium azide, 5 mM β-mercaptoethanol, pH 7.5; 500 μM peptide into 25 μM LC8
row,Sequence,Binder?
1,"DDSGGNATTQTTSD [ROR1, synthetic peptide from ROR1, UniProt Q01973]",Weak^a (Weak binders are those with affinities >25 μM)
2,"SFRHPGYSTQTHVN [KLK7, synthetic peptide from KLK7, UniProt P49862]",N
3,"SPSPTGLPTQTPGF [ARAP3, synthetic peptide from ARAP3, UniProt Q8WWN8]",Weak^a (Weak binders are those with affinities >25 μM)
4,"TPTPTPTGTQTPTT [MUC2, synthetic peptide from MUC2, UniProt Q02817]",N
5,"SSRSAFSPLQPNAS [DMRTA2, synthetic peptide from DMRTA2, UniProt Q96SC8]",N
6,DDNHWTRSTQTTRE [MUC4],Y
7,"AKESCNMETQTSST [OFD1, synthetic peptide from OFD1, UniProt O75665]",Y
8,"DDPMYSSQTQTYGD [KCNQ2, synthetic peptide from KCNQ2, UniProt O43526]",N
9,"TEAKDQCSTQTDFN [EPAS1, synthetic peptide from EPAS1, UniProt Q99814]",N
10,"TLQQPLELTASQLPAG [OTOG, synthetic peptide from OTOG, UniProt Q6ZRI0]",N
11,"KTLTFSGSSQTVTP [QSER1, synthetic peptide from QSER1, UniProt Q2KHR3]",N
12,"DDHSGNAQVTQTKFD [DDX1, synthetic peptide from DDX1, UniProt Q92499]",N
13,"GQGAALTTATQTTHLE [GP1BA, synthetic peptide from GP1BA, UniProt P07359]",Weak^a (Weak binders are those with affinities >25 μM)
14,"RGDGSDVSSQTPQT [ANKIB1, synthetic peptide from ANKIB1, UniProt Q9P2G1]",N
15,STQTPSPAPASDMP [BSN-shift],N
16,"AASLIQKMLQTDPTAR [PLK1, synthetic peptide from PLK1, UniProt P53350]",N
17,"SKTQQTFGSQTECT [TOGARAM1, synthetic peptide from TOGARAM1, UniProt Q9Y4F4]",Weak^a (Weak binders are those with affinities >25 μM)

row,Sequence,Binder?
1,"NQSFLRTPIQRTPH [SAV1, synthetic peptide from SAV1, UniProt Q9H4B6]",N
2,"ITSYNSQGTQLTVE [KY, synthetic peptide from KY, UniProt Q8NBH2]",N
3,"TTLPVLTSTATKST [MUC5B-1, synthetic peptide from MUC5B, UniProt Q9HC84, residues 3,049-3,062]",N
4,"TLVSTASGTQTVFP [SH3RF2, synthetic peptide from SH3RF2, UniProt Q8TEC5]",N
5,"ESGDGNTGTQTNGL [POU2F1, synthetic peptide from POU2F1, UniProt P14859]",N
6,"DERLMCTGSQTFDD [EFL1, synthetic peptide from EFL1, UniProt Q7Z2Z2]",N
7,"EGYRGTANTTTAAYLA [MSTL1, synthetic peptide from MSTL1, UniProt Q2TV78]",N
8,"SMATPSSSTQTSGT [MUC5B-3, synthetic peptide from MUC5B, UniProt Q9HC84, residues 2,673-2,686]",N
9,"PLQATISKSQTNPV [UBN2, synthetic peptide from UBN2, UniProt Q6ZU65]",N
10,"RSFVLPVESTQDVSSQ [CRYBG1, synthetic peptide from CRYBG1, UniProt Q9Y4K1]",N
11,"KHSGRQLTLQHHMG [CUL3, synthetic peptide from CUL3, UniProt Q13618]",N
12,"KITFTKPSTQTTNT [EMSY, synthetic peptide from EMSY, UniProt Q7Z589]",N
13,"LPRKVDTAAQTNSR [IRS1, synthetic peptide from IRS1, UniProt P35568]",N
14,"RAAALPEETRSSRR [ZNF469, synthetic peptide from ZNF469, UniProt Q96JG9]",N
15,TQDDYFKDKRVHHFRRS [DAZL],N
16,"CLKETLQITQTEVQ [NFYC, synthetic peptide from NFYC, UniProt Q13952]",N
17,"LQETLTTSSQANLS [PPP2R3A, synthetic peptide from PPP2R3A, UniProt Q06190]",N

# Same assay, conditions: Table 2, peptides synthesized from favorable sequence comparisons (PSSM); ITC, 25°C, pH 7.5; 500 μM peptide into 25 μM LC8
row,Sequence,Binder?
1,"YELMASLDQPTQTVVM [EIF3C, synthetic peptide from EIF3C, UniProt Q99613]",N
2,"YKIEIPTQCPSCGSK [DNLJ2 (phage T5), synthetic peptide from DNLJ2 (phage T5), UniProt Q5DMI6]",N
3,"YHHRILEAKSIQTSPT [FMN2, synthetic peptide from FMN2, UniProt Q9NZ56]",N
4,"MDDIFTQCREGN [ILK, synthetic peptide from ILK, UniProt Q13418]",N
5,"YGQIAPENGTQTPSP [ITGAX, synthetic peptide from ITGAX, UniProt P20702]",N
6,"YGPDGEETETQTCPP [PRSS36, synthetic peptide from PRSS36, UniProt Q5K4E3]",N
7,"NKVFAKLHHNTQTFQA [CCL25, synthetic peptide from CCL25, UniProt O15444]",N
8,"KPFMLDEEGDTQTEET [EIF2S2, synthetic peptide from EIF2S2, UniProt P20042]",N
9,"DFTPAFADFGRQTPGG [EIF4G3, synthetic peptide from EIF4G3, UniProt O43432]",N
10,"AQPKQKLDTSIQTEYP [MT/HEL (TMV), synthetic peptide from MT/HEL (TMV), UniProt P03586]",N
11,TQDDYFKDKRVHHFRRS [DAZL],N
12,"KSVAENGDTDTQTSMF [ZZZ3, synthetic peptide from ZZZ3, UniProt Q8IYH5]",N

# Same assay, conditions: pH 7.5
row,Sequence,Kd [µM]
1,PRATAEFSTQTPSP [BSN^II],3.8
